Assay results published in patent US4450149A, “Radiohalogenation method” (Research Corporation, priority 1981, dated 1984).
Where two headings read alike, the source gives them in different places.

How the values were obtained:
[1] = Tissue distribution study of radioiodinated fatty acid, 5 min post intravenous injection; type: in vivo, female Sp-raque-Dawley rats; settings: 5 min post injection, approximately 25 μCi, Prepared Via Present Method, average of 5 rats (standard deviation)
Description: Tissue Distribution Study The radioiodinated 19-^125 I-iodononadecanoicacid was evaluated in female Sp-raque-Dawley rats weighing 250-350 g. The rats were given food and water ad libidum. For the tissue distribution study, approximately 25 μCi of the fatty acid in a physiological formulation (EtOH/Tween 80/0.9% saline: 2.5 ml/0.65 ml/22 ml) was administered intraveneously to ether anesthetized rats. Five animals were sacrificed at 5 min post injection. Representative 50-100 mg samples of heart, liver, lung, blood, and muscle were removed and cleaned of fat and connective tissue. Samples were counted in an auto-gamma scintillation counter and values corrected for radioactive decay, counting efficiency and background. The resulting tissue concentration values were normalized to a per kilogram body weight and are reported in % kg dose/g. as shown in Table 8.

[2] = reported in J. Nucl. Med., 22:0000, 1981; average of 5 rats (standard deviation); cited from earlier work

tissue concentration, Blood [1]: 0.13 ± 0.00 % kg dose/g
tissue concentration, Heart [1]: 0.71 ± 0.01 % kg dose/g
tissue concentration, Liver [1]: 0.47 ± 0.03 % kg dose/g
tissue concentration, Lung [1]: 0.24 ± 0.02 % kg dose/g
tissue concentration, Muscle [1]: 0.14 ± 0.00 % kg dose/g
SMILES: O=C(O)CCCCCCCCCCCCCCCCCC[125I] [19-^125 I--iodononadecanoic acid]
tissue concentration, Blood [2]: 0.15 ± 0.01 % kg dose/g
tissue concentration, Heart [2]: 0.88 ± 0.23 % kg dose/g
tissue concentration, Liver [2]: 0.53 ± 0.02 % kg dose/g
tissue concentration, Lung [2]: 0.28 ± 0.04 % kg dose/g
tissue concentration, Muscle [2]: 0.19 ± 0.00 % kg dose/g
